This note sets out measurements from patent US10358425B1, “Dihydropyrimidones and pharmaceutical compositions thereof” (King Abdulaziz University, priority 2018, dated 2019).

Molecule `O=C1NC(O)=C(C(=O)c2ccccc2)C(c2ccccc2)N1` (stereo not shown) [Compound 7, 5-benzoyl-6-hydroxy-4-phenyl-3,4-dihydropyrimidin-2(1H)-one] displayed a melting point of 267 °C.

As usually defined, the melting point is the temperature of the solid-liquid transition.
